The text below walks through data of patent US20040224914A1, “Method for treatment of angiogenic disorders” (The University of British Columbia, priority 2003, published 2004).

Data set [1] concerns HUVECS. Conditions: by the induction of apoptosis; cited from earlier work.
The test system of data set [2] is HUVECS. The data set is described as follows: HUVECS cell viability (mts) after antisense with or without drug. The class given is cell-based, human. On the procedure: HUVECS were grown for 2 days in wells after seeding at 1200 per well. Antisense oligonucleotide of Seq. ID No. 5 (4 μg/ml with LIPOFECTIN™) was added in serum free medium and incubated with the cells for 4 hours. Then 100 μl of serum was added and incubation was continued overnight. The next day, 150 μl of drug solution in serum medium was added. After two days, 20 μl of mts solution was added and left for approximately 3 hours. Cell viability was determined as the difference between absorption at 490 and 595 nm.

Setting [3] is: Table 1 series, Drug alone (100 nM paclitaxel).
The mark [4] stands for this setting: Table 1 series, AS 50 nM, no drug.
Where [5] appears, read: Table 1 series, AS 100 nM, no drug.
Where [6] appears, read: Table 1 series, AS 200 nM, no drug.
[7] abbreviates: Table 1 series, Drug (100 nM paclitaxel) + AS 50 nM.
Where [8] appears, read: Table 1 series, Drug (100 nM paclitaxel) + AS 100 nM.
Where [9] appears, read: Table 1 series, Drug (100 nM paclitaxel) + AS 200 nM.
Setting [10] is: Table 2 series, AS 50 nM, no drug.
The mark [11] stands for this setting: Table 2 series, AS 100 nM, no drug.
Where [12] appears, read: Table 2 series, AS 200 nM, no drug.
Where [13] appears, read: Table 2 series, Drug (100 nM camptothecin) + AS 50 nM.
Where [14] appears, read: Table 2 series, Drug (100 nM camptothecin) + AS 100 nM.
Setting [15] is: Table 2 series, Drug (100 nM camptothecin) + AS 200 nM.
[16] abbreviates: Table 3 series, AS 50 nM, no drug.
[17] abbreviates: Table 3 series, AS 100 nM, no drug.
Setting [18] is: Table 3 series, AS 200 nM, no drug.
The mark [19] stands for this setting: Table 3 series, Drug (200 nM doxorubicin) + AS 50 nM.
Setting [20] is: Table 3 series, Drug (200 nM doxorubicin) + AS 100 nM.
Setting [21] is: Table 3 series, Drug (200 nM doxorubicin) + AS 200 nM.
Where [22] appears, read: Table 2 series, Drug alone (100 nM camptothecin).
Where [23] appears, read: Table 3 series, Drug alone (200 nM doxorubicin).

On to `CC(=O)O[C@H]1C(=O)[C@@]2(C)[C@H]([C@H](OC(=O)c3ccccc3)[C@]3(O)C[C@H](OC(=O)[C@H](O)[C@@H](NC(=O)c4ccccc4)c4ccccc4)C(C)=C1C3(C)C)[C@]1(OC(C)=O)CO[C@@H]1C[C@@H]2O` [paclitaxel, reference compound], for which the “concentration range that inhibits Huvecs” value with HUVECS [1] was “low nanomolar range”. Also, in the data set on HUVECS [2] (setting [3]), the “absorbance at 490 nm (mts, cell viability)” value (“absorbance at 490 nm” below) is 0.53 and the “absorbance at 595 nm (mts, cell viability)” value (shortened to “absorbance at 595 nm”) is given as 0.12.
On to “AS: Antisense oligonucleotide of Seq. ID No. 5, which reduces the effective amount of clusterin (antisense CAGCAGCAGAGTCTTCATCAT; listed as DNA, chemistry not given here)”, for which the “cell viability response to antisense concentration” value is “dose dependent response” in the data set with HUVECS [2] (FIG. 1, paclitaxel series); “dose dependent response” in the data set on HUVECS [2] (FIG. 2, camptothecin series); “dose dependent response” with HUVECS [2] (FIG. 3, doxorubicin series). The “cell viability response to antisense in the presence of drug versus absence” value in the data set on HUVECS [2] (FIG. 1, in the presence of 100 nM paclitaxel) was “the response is greater”; with HUVECS [2] (FIG. 2, in the presence of 100 nM camptothecin) it was “the response is greater”; in the data set on HUVECS [2] (FIG. 3, in the presence of 200 nM doxorubicin) it was “the response is greater”. Besides, the “absorbance at 490 nm” value was found to be 0.66 in the data set with HUVECS [2] (setting [4]); 0.40 in the data set on HUVECS [2] (setting [5]); 0.28 in the data set on HUVECS [2] (setting [6]); 0.50 in the data set on HUVECS [2] (setting [7]); 0.24 in the data set with HUVECS [2] (setting [8]); 0.17 with HUVECS [2] (setting [9]). The “absorbance at 490 nm” value worked out at 0.66 with HUVECS [2] (setting [10]); 0.39 in the data set on HUVECS [2] (setting [11]); 0.21 in the data set on HUVECS [2] (setting [12]); 0.53 in the data set on HUVECS [2] (setting [13]); 0.31 in the data set with HUVECS [2] (setting [14]); 0.15 in the data set with HUVECS [2] (setting [15]). Further, the “absorbance at 490 nm” value stood at 0.66 in the data set on HUVECS [2] (setting [16]); 0.35 in the data set with HUVECS [2] (setting [17]); 0.22 in the data set on HUVECS [2] (setting [18]); 0.66 with HUVECS [2] (setting [19]); 0.32 with HUVECS [2] (setting [20]); 0.18 in the data set with HUVECS [2] (setting [21]). For the same molecule, the “absorbance at 595 nm” value came out at 0.04 in the data set with HUVECS [2] (setting [4]); 0.09 in the data set on HUVECS [2] (setting [5]); 0.07 in the data set with HUVECS [2] (setting [6]); 0.09 in the data set on HUVECS [2] (setting [7]); 0.04 in the data set with HUVECS [2] (setting [8]); 0.05 in the data set on HUVECS [2] (setting [9]). For the same molecule, the “absorbance at 595 nm” value was 0.10 in the data set on HUVECS [2] (setting [10]); 0.06 in the data set with HUVECS [2] (setting [11]); 0.04 in the data set on HUVECS [2] (setting [12]); 0.07 with HUVECS [2] (setting [13]); 0.08 with HUVECS [2] (setting [14]); 0.05 in the data set with HUVECS [2] (setting [15]). Moreover, the “absorbance at 595 nm” value in the data set on HUVECS [2] (setting [16]) turned out to be 0.07; with HUVECS [2] (setting [17]), 0.05; in the data set with HUVECS [2] (setting [18]) it was 0.04; in the data set on HUVECS [2] (setting [19]) it was 0.06; with HUVECS [2] (setting [20]), 0.04; in the data set on HUVECS [2] (setting [21]), 0.02. The “effect of antisense on inhibition of cell proliferation induced by antiproliferative drugs” value with HUVECS [2] (paclitaxel, camptothecin, doxorubicin, downregulation of clusterin) is on record as “enhanced”.
As to `CC[C@@]1(O)C(=O)OCc2c1cc1n(c2=O)Cc2cc3ccccc3nc2-1` [camptothecin, reference compound], the “concentration range that inhibits Huvecs” value in the data set with HUVECS [1] was “low nanomolar range”. Moreover, in the data set with HUVECS [2] (setting [22]), the “absorbance at 490 nm” value worked out at 0.55 and the “absorbance at 595 nm” value turned out to be 0.07.
As to `COc1cccc2c1C(=O)c1c(O)c3c(c(O)c1C2=O)C[C@@](O)(C(=O)CO)C[C@@H]3O[C@H]1C[C@H](N)[C@H](O)[C@H](C)O1` [doxorubicin, reference compound], the “concentration range that inhibits Huvecs” value in the data set on HUVECS [1] is “low nanomolar range”. Further, in the data set on HUVECS [2] (setting [23]), the “absorbance at 490 nm” value was determined as 0.74 and the “absorbance at 595 nm” value worked out at 0.08.
